Laboratory results published in patent US6737383B1, “Herbicidal oxadiazolidines” (priority 1999, dated 2004).

Key:
bedstraw = experiment: Test B pre/postemergence bedstraw; assay type: in vivo, Galium aparine
How it was run: (§1)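 Response is a visual 0-to-10 score relative to untreated plants, where 0 means no effect and 10 means complete control, taken twelve to sixteen days after application. Treatments went onto soil at planting and onto foliage of 1- to 4-leaf plants, using a surfactant-containing non-phytotoxic solvent.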

blackgrass = experiment: Test B pre/postemergence blackgrass; assay type: in vivo, Alopecurus myosuroides
How it was run: as §1

surinam grass = experiment: Test B pre/postemergence surinam grass; assay type: in vivo, Brachiaria decumbens
How it was run: as §1

cocklebur = experiment: Test B pre/postemergence cocklebur; assay type: in vivo, Xanthium strumarium
How it was run: as §1

corn = experiment: Test B pre/postemergence corn; assay type: in vivo, Zea mays
How it was run: as §1

crabgrass = experiment: Test B pre/postemergence crabgrass; assay type: in vivo, Digitaria sanguinalis
How it was run: as §1

giant foxtail = experiment: Test B pre/postemergence giant foxtail; assay type: in vivo, Setaria faberii
How it was run: as §1

morningglory = experiment: Test B pre/postemergence morningglory; assay type: in vivo, Ipomoea hederacea
How it was run: as §1

velvetleaf = experiment: Test B pre/postemergence velvetleaf; assay type: in vivo, Abutilon theophrasti
How it was run: as §1

wheat = experiment: Test B pre/postemergence wheat; assay type: in vivo, Triticum aestivum
How it was run: as §1

wild oat = experiment: Test B pre/postemergence wild oat; assay type: in vivo, Avena fatua
How it was run: as §1

purple nutsedge = experiment: Test B pre/postemergence purple nutsedge; assay type: in vivo, Cyperus rotundus
How it was run: as §1

rice = experiment: Test B flood test rice; assay type: in vivo, Oryza sativa
How it was run: (§2)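 Read-out is a visual response score from 0 (no effect) to 10 (complete control), assigned by comparison with untreated controls. Treatment was applied at the 2-leaf stage, and plants stayed in the greenhouse for twelve to sixteen days before scoring.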

smallflower flatsedge = experiment: Test B flood test smallflower flatsedge; assay type: in vivo, Cyperus difformis
How it was run: as §2

duck salad = experiment: Test B flood test duck salad; assay type: in vivo, Heteranthera limosa
How it was run: as §2

bamyardgrass = experiment: Test B flood test barnyardgrass; assay type: in vivo, Echinochloa crus-galli
How it was run: as §2

[1] = Postemergence, Rate 125 g/ha, scale of 0 to 10 where 0 is no effect and 10 is complete control
[2] = Preemergence, Rate 62 g/ha, scale 0 to 10 (0 no effect, 10 complete control)
[3] = Preemergence, Rate 125 g/ha, 0 is no effect, 10 is complete control
[4] = Preemergence, Rate 250 g/ha, scale 0 to 10, 0 is no effect, 10 is complete control
[5] = Preemergence, Rate 500 g/ha, scale 0 to 10 (0 no effect, 10 complete control)
[6] = Rate 62 g/ha, Postemergence, scale of 0 to 10 where 0 is no effect and 10 is complete control
[7] = Rate 250 g/ha, Postemergence, scale 0 to 10, 0 is no effect, 10 is complete control
[8] = Rate 500 g/ha, Postemergence, scale 0 to 10
[9] = Postemergence (flood test species), Rate 125 g/ha, scale of 0 to 10 where 0 is no effect and 10 is complete control
[10] = Rate 250 g/ha, Postemergence (flood test), scale 0 to 10, 0 is no effect, 10 is complete control
[11] = Rate 500 g/ha, listed under Postemergence (flood test species), scale 0 to 10

## CCOC(=O)Cn1c(=O)on(C(=O)N(c2ccc(F)cc2)C(C)C)c1=O [Compound 128]
bedstraw; [1]
  Bedstraw plant response rating: 0
bedstraw; [2]
  Bedstraw plant response rating: 0
bedstraw; [3]
  Bedstraw plant response rating (0 to 10 scale): 0
bedstraw; [4]
  Bedstraw plant response rating: 0
bedstraw; [5]
  Bedstraw plant response rating: 0
bedstraw; [6]
  Bedstraw plant response rating: 0
bedstraw; [7]
  Plant response rating, Bedstraw: 0
bedstraw; Rate 500 g/ha, Postemergence, scale 0 to 10, 0 no effect, 10 complete control
  Bedstraw plant response rating: 0
blackgrass; [1]
  Blackgrass plant response rating: 0
blackgrass; [2]
  Blackgrass plant response rating: 0
blackgrass; [3]
  Blackgrass plant response rating (0 to 10 scale): 0
blackgrass; [4]
  Blackgrass plant response rating: 0
blackgrass; [5]
  Blackgrass plant response rating: 2
blackgrass; [6]
  Blackgrass plant response rating: 0
blackgrass; [7]
  Plant response rating, Blackgrass: 0
blackgrass; [8]
  Blackgrass plant response rating: 0
Surinam grass; [1]
  B. signalgrass plant response rating: 0
Surinam grass; [2]
  B. signalgrass plant response rating: 0
Surinam grass; [3]
  B. signalgrass plant response rating (0 to 10 scale): 0
Surinam grass; [4]
  B. signalgrass plant response rating: 0
Surinam grass; [5]
  B. signalgrass plant response rating: 0
Surinam grass; [6]
  B. signalgrass plant response rating: 0
Surinam grass; [7]
  Plant response rating, B. signalgrass: 0
Surinam grass; Rate 500 g/ha, Postemergence, scale of 0 to 10 where 0 is no effect and 10 is complete control
  B. signalgrass plant response rating: 0
cocklebur; [1]
  Cocklebur plant response rating: 0
cocklebur; [2]
  Cocklebur plant response rating: 0
cocklebur; [3]
  Cocklebur plant response rating (0 to 10 scale): 0
cocklebur; [4]
  Cocklebur plant response rating: 0
cocklebur; [5]
  Cocklebur plant response rating: 0
cocklebur; [6]
  Cocklebur plant response rating: 0
cocklebur; [7]
  Plant response rating, Cocklebur: 0
cocklebur; [8]
  Cocklebur plant response rating: 0
corn; [1]
  Corn plant response rating: 0
corn; [2]
  Corn plant response rating: 0
corn; [3]
  Corn plant response rating (0 to 10 scale): 0
corn; [4]
  Corn plant response rating: 0
corn; [5]
  Corn plant response rating: 0
corn; [6]
  Corn plant response rating: 0
corn; [7]
  Plant response rating, Corn: 0
corn; [8]
  Corn plant response rating: 0
crabgrass; [1]
  Crabgrass plant response rating: 0
crabgrass; [2]
  Crabgrass plant response rating: 0
crabgrass; [3]
  Crabgrass plant response rating (0 to 10 scale): 0
crabgrass; [4]
  Crabgrass plant response rating: 0
crabgrass; [5]
  Crabgrass plant response rating: 0
crabgrass; [6]
  Crabgrass plant response rating: 0
crabgrass; [7]
  Plant response rating, Crabgrass: 0
crabgrass; [8]
  Crabgrass plant response rating: 0
Giant foxtail; [1]
  Giant foxtail plant response rating: 0
Giant foxtail; [2]
  Giant foxtail plant response rating: 0
Giant foxtail; [3]
  Giant foxtail plant response rating (0 to 10 scale): 0
Giant foxtail; [4]
  Giant foxtail plant response rating: 0
Giant foxtail; [5]
  Giant foxtail plant response rating: 8
Giant foxtail; [6]
  Giant foxtail plant response rating: 0
Giant foxtail; [7]
  Plant response rating, Giant foxtail: 0
Giant foxtail; [8]
  Giant foxtail plant response rating: 0
morningglory; [1]
  Morningglory plant response rating: 0
morningglory; [2]
  Morningglory plant response rating: 0
morningglory; [3]
  Morningglory plant response rating (0 to 10 scale): 0
morningglory; [4]
  Morningglory plant response rating: 0
morningglory; [5]
  Morningglory plant response rating: 0
morningglory; [6]
  Morningglory plant response rating: 0
morningglory; [7]
  Plant response rating, Morningglory: 0
morningglory; [8]
  Morningglory plant response rating: 0
velvetleaf; [1]
  Velvetleaf plant response rating: 0
velvetleaf; [2]
  Velvetleaf plant response rating: 0
velvetleaf; [3]
  Velvetleaf plant response rating (0 to 10 scale): 0
velvetleaf; [4]
  Velvetleaf plant response rating: 0
velvetleaf; [5]
  Velvetleaf plant response rating: 0
velvetleaf; [6]
  Velvetleaf plant response rating: 0
velvetleaf; [7]
  Plant response rating, Velvetleaf: 0
velvetleaf; [8]
  Velvetleaf plant response rating: 0
wheat; [1]
  Wheat plant response rating: 0
wheat; [2]
  Wheat plant response rating: 0
wheat; [3]
  Wheat plant response rating (0 to 10 scale): 0
wheat; [4]
  Wheat plant response rating: 0
wheat; [5]
  Wheat plant response rating: 0
wheat; [6]
  Wheat plant response rating: 0
wheat; [7]
  Plant response rating, Wheat: 0
wheat; [8]
  Wheat plant response rating: 0
Wild oat; [1]
  Wild oats plant response rating: 0
Wild oat; [2]
  Wild oats plant response rating: 0
Wild oat; [3]
  Wild oats plant response rating (0 to 10 scale): 0
Wild oat; [4]
  Wild oats plant response rating: 0
Wild oat; [5]
  Wild oats plant response rating: 0
Wild oat; [6]
  Wild oats plant response rating: 0
Wild oat; [7]
  Plant response rating, Wild oats: 0
Wild oat; [8]
  Wild oats plant response rating: 0
Purple nutsedge; [1]
  Nutsedge plant response rating: 0
Purple nutsedge; [2]
  Nutsedge plant response rating: 0
Purple nutsedge; [3]
  Nutsedge plant response rating (0 to 10 scale): 0
Purple nutsedge; [4]
  Nutsedge plant response rating: 0
Purple nutsedge; [5]
  Nutsedge plant response rating: 0
Purple nutsedge; [6]
  Nutsedge plant response rating: 0
Purple nutsedge; [7]
  Plant response rating, Nutsedge: 0
Purple nutsedge; [8]
  Nutsedge plant response rating: 0
rice; [9]
  Rice plant response rating: 0
rice; [10]
  Plant response rating, Rice: 0
rice; [11]
  Rice plant response rating: 0
Smallflower flatsedge; [9]
  S. Flatsedge plant response rating: 0
Smallflower flatsedge; [10]
  Plant response rating, S. Flatsedge: 0
Smallflower flatsedge; [11]
  S. Flatsedge plant response rating: 0
Duck salad; [9]
  Ducksalad plant response rating: 0
Duck salad; [10]
  Plant response rating, Ducksalad: 0
Duck salad; [11]
  Ducksalad plant response rating: 0
bamyardgrass; [9]
  Barnyardgrass plant response rating: 0
bamyardgrass; [10]
  Plant response rating, Barnyardgrass: 0
bamyardgrass; Rate 500 g/ha, listed under Postemergence (flood test species), scale 0 to 10, 0 no effect, 10 complete control
  Barnyardgrass plant response rating: 0
